Columns and labels:
Human Axl = Human Axl (Homo sapiens (Human), UniProt P30530, Q764R); assay: Human AXL kinase assay (33P radiometric, KinaseProfiler); format: biochemical; settings: 10 μM ATP
Method: (§1) Kinase activity and compound inhibition were investigated using the ^33P-Phosphoryl transfer radiometric kinase assay, performed using the KinaseProfiler™ service of Eurofins Pharma Discovery Services UK Limited. Dose-response experiments were performed using nine compound concentrations in a 96-well microtiter plate. For each assay, all compounds were prepared to a 50× final assay concentration (50 μM) in 100% DMSO, then diluted in a half-log series, with the final top concentration at 1 μM. This working stock of the compound was added to the assay well as the first component in the reaction, followed by the remaining components as detailed in the following assay protocols below. The positive control wells (100% kinase activity) contain all components of the reaction including 2% DMSO (control for solvent effects), except the compound of interest. Blank wells contain all components of the reaction, with the reference inhibitor, staurosporine. This reference compound was used to abolish kinase activity and generated the 0% kinase activity base-line. IC50 values were calculated by nonlinear regression analysis using the sigmoidal dose-response (variable slope) curve fit on XLFit version 5.3 (ID Business Solutions).
Human Axl (residues H473-A894 with Q764R, 161 nM) was incubated with 8 mM MOPS pH 7.0, 0.2 mM EDTA, 250 μM KKSRGDYMTMQIG (SEQ ID NO. 43), 10 mM magnesium acetate and 10 μM [γ-33P-ATP]. The reaction was initiated by the addition of the Mg/ATP mix. After incubation for 40 minutes at room temperature, the reaction was stopped by the addition of phosphoric acid to a concentration of 0.5%. A reaction aliquot of 10 μL was then spotted onto a P30 filtermat and washed four times for 4 minutes in 0.425% phosphoric acid and once in methanol prior to drying and scintillation counting. Incorporated ^33P was measured using the Wallac Microbeta scintillation counter (Perkin Elmer).

Mer [1] = target: T1, Mer (Homo sapiens (Human), UniProt Q12866); assay: Human Mer kinase assay (33P radiometric, KinaseProfiler); format: biochemical; settings: 10 μM ATP
Method: as §1
Target sequence in this assay (Q12866 557-882): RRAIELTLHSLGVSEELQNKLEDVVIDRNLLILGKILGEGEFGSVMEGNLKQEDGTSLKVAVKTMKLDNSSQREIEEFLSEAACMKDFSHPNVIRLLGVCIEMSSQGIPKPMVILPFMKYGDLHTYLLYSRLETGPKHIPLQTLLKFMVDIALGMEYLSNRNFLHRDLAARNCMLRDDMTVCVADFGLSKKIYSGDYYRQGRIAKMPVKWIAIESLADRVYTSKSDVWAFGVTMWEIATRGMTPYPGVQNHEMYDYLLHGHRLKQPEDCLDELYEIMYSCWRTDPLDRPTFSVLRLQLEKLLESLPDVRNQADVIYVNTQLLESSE
Human Mer (residues R557-E882 with H628Q and R794A, 0.7 nM) was incubated with 8 mM MOPS pH 7.0, 0.2 mM EDTA, 30 mM NaCl, 250 μM GGMEDIYFEFMGGKKK (SEQ ID NO. 44), 10 mM magnesium acetate, and 10 μM [γ-33P-ATP]. The reaction was initiated by the addition of the Mg/ATP mix. After incubation for 40 minutes at room temperature, the reaction was stopped by the addition of phosphoric acid to a concentration of 0.5%. A reaction aliquot of 10 μL was then spotted onto a P30 filtermat and washed four times for 4 minutes in 0.425% phosphoric acid and once in methanol prior to drying and scintillation counting. Incorporated 33P was measured using the Wallac Microbeta scintillation counter (Perkin Elmer).

Mer [2] = target: T1, Mer; assay: Mer autophosphorylation ELISA in transient transfected 293A cells; format: cell-based; settings: cellular, MERTK-transfected 293A cells, phospho-Mer ELISA
Method: 293A cells (Thermo Fisher #R70507) were seeded at 1.5×10^6 cells/well onto 100 mm dish (Greiner #664169), in DMEM (Thermo Fisher #11995-040) containing 10% FBS (Thermo Fisher #26140-079), 1% MEM NEAA (Thermo Fisher #11140-050), 1% GlutaMax (Thermo Fisher #35050-061), and 1% Penicillin Streptomycin (Thermo Fisher #15140-122). 293A cells were incubated at 37° C., 5% CO2 for 24 h and then transfected with 6 μg MERTK DNA (Genecopoeia #EX-Z8208-M02) using TransIT LT1 transfection reagent (Mirus-Bio #MIR2305). After 24 h incubation, the transfected 293A cells were seeded at 1×10^5 cells/well onto 96-well plates (Corning #3904) in DMEM growth medium overnight. Test compounds were serially diluted to produce an 8-point dose curve in fresh serum-free medium to a final concentration of 0.3% DMSO (vehicle) and added to the cells and incubated for 1 h. Cells were then immediately lysed with 150 μL of cold IX lysis buffer [20 mM Tris, 137 mM sodium chloride, 2 mM EDTA, 10% glycerol, 1% NP-40 alternative, 1 mM activated sodium orthovanadate, 1 mM PefaBloc SC (Sigma-Aldrich #11429868001), protease/phosphatase inhibitor tablet (Thermo Fisher #A32959)]. Lysates were clarified by centrifugation and 50 μL/well added into the human phospho-Mer DuoSet IC ELISA (R&D Systems #DYC2579-2). Assay was performed according to manufacturer's instructions and sample phospho-Mer concentrations were extrapolated using human phospho-Mer control (R&D Systems #841793) as a standard. Positive control wells (100% activity) contained DMSO-treated cell lysates. Negative control wells (0% activity) contained reference inhibitor-treated cell lysates. IC50 values were calculated by nonlinear regression analysis using a 4-parameter logistic curve fit in ActivityBase XE (IDBS).
Target sequence in this assay (Q12866 21-999): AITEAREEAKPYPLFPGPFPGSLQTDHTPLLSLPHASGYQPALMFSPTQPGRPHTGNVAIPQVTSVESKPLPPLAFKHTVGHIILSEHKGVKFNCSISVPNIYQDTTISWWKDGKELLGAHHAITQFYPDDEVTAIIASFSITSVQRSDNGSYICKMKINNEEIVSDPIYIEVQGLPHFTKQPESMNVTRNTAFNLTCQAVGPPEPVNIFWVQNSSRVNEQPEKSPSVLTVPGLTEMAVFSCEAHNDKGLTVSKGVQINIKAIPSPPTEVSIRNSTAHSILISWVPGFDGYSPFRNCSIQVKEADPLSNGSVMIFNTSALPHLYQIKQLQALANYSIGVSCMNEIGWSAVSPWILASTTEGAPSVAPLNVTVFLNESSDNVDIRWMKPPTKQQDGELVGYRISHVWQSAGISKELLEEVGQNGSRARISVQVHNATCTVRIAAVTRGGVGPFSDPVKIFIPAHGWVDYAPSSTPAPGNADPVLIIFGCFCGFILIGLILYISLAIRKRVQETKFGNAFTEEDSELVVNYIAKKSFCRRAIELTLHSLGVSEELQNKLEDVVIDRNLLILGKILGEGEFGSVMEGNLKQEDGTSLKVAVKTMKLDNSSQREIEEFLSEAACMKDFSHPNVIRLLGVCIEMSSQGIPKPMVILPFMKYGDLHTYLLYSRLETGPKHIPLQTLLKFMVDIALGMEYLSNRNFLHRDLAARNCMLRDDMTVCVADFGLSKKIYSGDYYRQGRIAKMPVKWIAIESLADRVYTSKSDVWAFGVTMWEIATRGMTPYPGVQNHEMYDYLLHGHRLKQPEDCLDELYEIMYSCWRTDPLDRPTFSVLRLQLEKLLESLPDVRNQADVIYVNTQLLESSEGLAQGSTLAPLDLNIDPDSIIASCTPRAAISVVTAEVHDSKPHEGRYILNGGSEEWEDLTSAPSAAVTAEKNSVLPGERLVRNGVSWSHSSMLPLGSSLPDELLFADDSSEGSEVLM

KDR = KDR (Homo sapiens (Human), UniProt P35968); assay: KDR autophosphorylation ELISA in HUVEC cells; format: cell-based; settings: cellular, VEGF165-stimulated, phospho-KDR ELISA
Sequence of KDR (P35968 20-1356): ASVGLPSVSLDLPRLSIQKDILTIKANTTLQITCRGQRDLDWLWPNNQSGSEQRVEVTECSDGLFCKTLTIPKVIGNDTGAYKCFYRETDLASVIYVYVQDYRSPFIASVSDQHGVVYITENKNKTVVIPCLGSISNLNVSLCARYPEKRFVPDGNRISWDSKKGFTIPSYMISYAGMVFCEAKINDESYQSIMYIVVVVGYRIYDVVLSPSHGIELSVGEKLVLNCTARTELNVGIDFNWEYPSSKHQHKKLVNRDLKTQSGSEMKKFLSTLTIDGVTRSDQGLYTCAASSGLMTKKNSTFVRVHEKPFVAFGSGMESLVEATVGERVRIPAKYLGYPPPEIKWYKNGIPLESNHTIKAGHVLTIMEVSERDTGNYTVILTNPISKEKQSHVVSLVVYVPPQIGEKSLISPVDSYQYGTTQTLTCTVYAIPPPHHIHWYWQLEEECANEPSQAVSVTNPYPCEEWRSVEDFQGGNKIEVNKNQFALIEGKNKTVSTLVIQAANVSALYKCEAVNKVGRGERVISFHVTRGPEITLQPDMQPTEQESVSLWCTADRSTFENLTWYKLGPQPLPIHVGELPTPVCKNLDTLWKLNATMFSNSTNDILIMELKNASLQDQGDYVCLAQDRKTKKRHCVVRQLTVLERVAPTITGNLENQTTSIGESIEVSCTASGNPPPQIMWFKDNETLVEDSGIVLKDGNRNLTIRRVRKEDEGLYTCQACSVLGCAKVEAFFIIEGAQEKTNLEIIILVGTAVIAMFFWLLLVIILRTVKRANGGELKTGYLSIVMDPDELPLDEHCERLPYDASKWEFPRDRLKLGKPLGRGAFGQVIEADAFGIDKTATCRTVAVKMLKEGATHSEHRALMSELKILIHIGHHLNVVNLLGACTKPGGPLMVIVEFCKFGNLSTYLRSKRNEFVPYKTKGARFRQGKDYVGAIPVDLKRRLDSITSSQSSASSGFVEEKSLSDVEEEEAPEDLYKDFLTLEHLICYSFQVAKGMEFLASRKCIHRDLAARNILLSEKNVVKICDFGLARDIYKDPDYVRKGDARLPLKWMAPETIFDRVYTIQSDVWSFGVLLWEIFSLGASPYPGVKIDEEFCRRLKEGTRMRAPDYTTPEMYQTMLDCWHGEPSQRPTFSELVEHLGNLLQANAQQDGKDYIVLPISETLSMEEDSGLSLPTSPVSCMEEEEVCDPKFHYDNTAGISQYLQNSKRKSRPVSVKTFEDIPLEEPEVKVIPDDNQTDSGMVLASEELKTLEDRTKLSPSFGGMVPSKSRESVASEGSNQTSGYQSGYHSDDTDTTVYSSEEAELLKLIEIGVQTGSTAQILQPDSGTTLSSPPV
Method in brief: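 Serum-starved (24 h) HUVECs were pre-treated with compound (8-point dose curve, 0.3% DMSO final) for 1 h, then stimulated with 100 ng/mL human VEGF165 for 5 min. Lysate phospho-KDR was quantified by ELISA against a phospho-KDR standard. IC50 came from a 4-parameter logistic fit, normalized to stimulated-DMSO (100%) and unstimulated (0%) controls.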

Sequence of Human Axl (P30530 473-894 Q764R): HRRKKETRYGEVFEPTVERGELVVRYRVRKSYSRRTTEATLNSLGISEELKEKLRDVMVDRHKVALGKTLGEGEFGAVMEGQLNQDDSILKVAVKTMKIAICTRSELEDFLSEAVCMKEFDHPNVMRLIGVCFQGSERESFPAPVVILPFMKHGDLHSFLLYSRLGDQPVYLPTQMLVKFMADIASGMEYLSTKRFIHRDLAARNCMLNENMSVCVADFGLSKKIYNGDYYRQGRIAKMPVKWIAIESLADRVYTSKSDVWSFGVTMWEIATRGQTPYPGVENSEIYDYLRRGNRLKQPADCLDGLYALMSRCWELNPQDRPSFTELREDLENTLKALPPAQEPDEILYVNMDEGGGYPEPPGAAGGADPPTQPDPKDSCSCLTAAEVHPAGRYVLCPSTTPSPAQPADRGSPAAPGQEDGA

SMILES | IC50 (Human Axl) | IC50 (Mer [1]) | IC50 (Mer [2]) | IC50 (KDR)
COc1cc2ncnc(Oc3ccc(NC(=O)C4(C(=O)Nc5ccc(F)cc5)CC4)cc3)c2nc1OC [Compound 28, 1-N-[4-(6,7-dimethoxy-pyrido[3,2-d]pyrimidin-4-yl)oxyphenyl]-1-N′-(4-fluorophenyl)cyclo-propane-1,1-dicarboxamide] | ≤ 10 nM | ≤ 10 nM | 10 to 100 nM | 10 to 100 nM
COc1cc2ncnc(Oc3ccc(NC(=O)C4(C(=O)Nc5ccc(F)cc5)CC4)cc3F)c2nc1OC [Compound 30, 1-N′-[4-(6,7-dimethoxypyrido[3,2-d]pyrimidin-4-yl)oxy-3-fluorophenyl]-1-N-(4-fluorophenyl)cyclopropane-1,1-dicarboxamide] | ≤ 10 nM | ≤ 10 nM | ≤ 10 nM | ≤ 10 nM
COc1nc2c(Oc3ccc(NC(=O)C4(C(=O)Nc5ccc(F)cc5)CC4)cc3)ncnc2cc1OCCCN1CCOCC1 [Compound 65, 1-N′-(4-fluorophenyl)-1-N-[4-[6-methoxy-7-(3-morpholin-4-ylpropoxy)pyrido[3,2-d]pyrimidin-4-yl]oxyphenyl]cyclopropane-1,1-dicarboxamide] | 10 to 100 nM | ≤ 10 nM | 10 to 100 nM | ≤ 10 nM
COc1nc2c(Oc3ccc(NC(=O)C4(C(=O)Nc5ccc(F)cc5)CC4)cc3Cl)ncnc2cc1OCCCN1CCOCC1 [Compound 66, 1-N′-[3-chloro-4-[6-methoxy-7-(3-morpholin-4-ylpropoxy)pyrido[3,2-d]pyrimidin-4-yl]oxyphenyl]-1-N-(4-fluorophenyl)cyclo-propane-1,1-dicarboxamide] | ≤ 10 nM | ≤ 10 nM | – | ≤ 10 nM
COc1cc2c(Oc3ccc(NC(=O)C4(C(=O)Nc5ccc(F)cc5)CC4)cc3)ncnc2cn1 [Compound 91, 1-N′-(4-fluorophenyl)-1-N-[4-(6-methoxypyrido[3,4-d]pyrimidin-4-yl)oxyphenyl]cyclopropane-1,1-dicarboxamide] | 100 to 1000 nM | 10 to 100 nM | – | > 300 nM
COc1cc2ncnc(Oc3ccc(NC(=O)C4(C(=O)Nc5ccc(F)cc5)CC4)cc3)c2cc1C(N)=O [Compound 117, 1-N-[4-(6-carbamoyl-7-methoxyquinazolin-4-yl)oxyphenyl]-1-N′-(4-fluorophenyl)cyclopropane-1,1-dicarboxamide] | 10 to 100 nM | ≤ 10 nM | – | 10 to 100 nM
COc1cc2ncnc(Oc3ccc(NC(=O)C4(C(=O)Nc5ccc(F)cc5)CC4)cc3)c2cc1C(=O)NC[C@H]1CCCN1C(=O)OC(C)(C)C [Compound 119, tert-butyl (2R)-2-[[[4-[4-[[1-[(4-fluoro-phenyl)carbamoyl]cyclo-propane-carbonyl]amino]phenoxy]-7-methoxyquinazoline-6-carbonyl]amino]methyl]pyr-rolidine-1-carboxylate] | 10 to 100 nM | 10 to 100 nM | – | 10 to 100 nM
COc1cc2ncnc(Oc3ccc(NC(=O)C4(C(=O)Nc5ccc(F)cc5)CC4)cc3)c2cc1C(=O)NC[C@@H]1CCCN1C(=O)OC(C)(C)C [Compound 120, tert-butyl (2S)-2-[[[4-[4-[[1-[(4-fluoro-phenyl)carbamoyl]cyclo-propane-carbonyl]amino]phenoxy]-7-methoxyquinazoline-6-carbonyl]amino]methyl]pyr-rolidine-1-carboxylate] | 10 to 100 nM | 10 to 100 nM | – | 100 to 300 nM
COc1cc2ncnc(Oc3ccc(NC(=O)C4(C(=O)Nc5ccc(F)cc5)CC4)cc3)c2cc1C(=O)NC[C@H]1CCCN1 [Compound 121, 1-N′-(4-fluorophenyl)-1-N-[4-[7-methoxy-6-[[(2R)-pyrrolidin-2-yl]methyl-carbamoyl]quinazolin-4-yl]oxyphenyl]cyclopropane-1,1-dicarboxamide] | ≤ 10 nM | ≤ 10 nM | – | 100 to 300 nM

Continued, values first:

IC50 (Human Axl) | IC50 (Mer [1]) | IC50 (Mer [2]) | IC50 (KDR) | SMILES
10 to 100 nM | ≤ 10 nM | – | ≤ 10 nM | COc1cc2ncnc(Oc3ccc(NC(=O)C4(C(=O)Nc5ccc(F)cc5)CC4)cc3Cl)c2nc1OC [Compound 29, 1-N′-[3-chloro-4-(6,7-dimethoxypyrido[3,2-d]pyrimidin-4-yl)oxyphenyl]-1-N-(4-fluorophenyl)cyclo-propane-1,1-dicarboxamide]
≤ 10 nM | ≤ 10 nM | ≤ 10 nM | ≤ 10 nM | COc1nc2c(Oc3ccc(NC(=O)C4(C(=O)Nc5ccc(F)cc5)CC4)cc3F)ncnc2cc1OCCCN1CCOCC1 [Compound 67, 1-N′-[3-fluoro-4-[6-methoxy-7-(3-morpholin-4-ylpropoxy)pyrido[3,2-d]pyrimidin-4-yl]oxyphenyl]-1-N-(4-fluorophenyl)cyclo-propane-1,1-dicarboxamide]
10 to 100 nM | 10 to 100 nM | – | > 300 nM | COc1cc2ncnc(Oc3ccc(NC(=O)C4(C(=O)Nc5ccc(F)cc5)CC4)cc3)c2cn1 [Compound 104, 1-N′-(4-fluorophenyl)-1-N-[4-(7-methoxypyrido[4,3-d]pyrimidin-4-yl)oxy-phenyl]cyclopropane-1,1-dicarboxamide]
10 to 100 nM | 10 to 100 nM | – | 10 to 100 nM | COc1cc2ncnc(Oc3ccc(NC(=O)C4(C(=O)Nc5ccc(F)cc5)CC4)cc3)c2cc1C(=O)NC1COC1 [Compound 115, 1-N′-(4-fluorophenyl)-1-N-[4-[7-methoxy-6-(oxetan-3-ylcarbamoyl)quinazolin-4-yl]oxyphenyl]cyclopropane-1,1-dicarboxamide]
10 to 100 nM | 10 to 100 nM | – | 10 to 100 nM | COc1cc2ncnc(Oc3ccc(NC(=O)C4(C(=O)Nc5ccc(F)cc5)CC4)cc3)c2cc1C(=O)NC1CC1 [Compound 116, 1-N-[4-[6-(cyclopropylcarbamoyl)-7-methoxyquinazolin-4-yl]oxyphenyl]-1-N′-(4-fluorophenyl)cyclopropane-1,1-dicarboxamide]
≤ 10 nM | ≤ 10 nM | – | > 300 nM | COc1cc2ncnc(Oc3ccc(NC(=O)C4(C(=O)Nc5ccc(F)cc5)CC4)cc3)c2cc1C(=O)NC[C@@H]1CCCN1 [Compound 122, 1-N′-(4-fluorophenyl)-1-N-[4-[7-methoxy-6-[[(2S)-pyrrolidin-2-yl]methyl-carbamoyl]quinazolin-4-yl]oxyphenyl]cyclopropane-1,1-dicarboxamide]
10 to 100 nM | ≤ 10 nM | – | ≤ 10 nM | COc1cc2nccc(Oc3ccc(NC(=O)C4(C(=O)Nc5ccc(F)cc5)CC4)cc3Cl)c2nc1OC [Compound 141, 1-N′-[3-chloro-4-[(6,7-dimethoxy-1,5-naphthyridin-4-yl)oxy]phenyl]-1-N-(4-fluorophenyl)cyclo-propane-1,1-dicarboxamide]
